The test system of test [1] is SB.msgc-1. Description: viability at highest tested concentration (MAXR) relative to DMSO; higher = less cytotoxic. To be noted: SB.msgc-1 (sporadic gastric cancer). A digest of the protocol: (§1)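 Patient-derived gastric cancer cells, hereditary or sporadic, were plated at 500 cells in 5 μL medium per well of a 1536-well plate and given 23 nL of compound in DMSO by pintool across 11 threefold dilutions. The top concentration was recorded for each compound. After 48 h, CellTiter-Glo was added for 30 min at room temperature and luminescence was read on a ViewLux. Values are viability normalised to DMSO, taken either at the highest concentration or as trapezoidal area under the curve.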

Test [2] concerns SB.mhdgc-1. The description is as above. As to conditions: SB.mhdgc-1 (hereditary c.1380delA CDH1 gastric cancer). A digest of the protocol: as §1
In test [3] the test system is SB.msgc-1. In words: area under the dose-response curve of % viability (trapezoidal, 11 doses) (% viability x log10 concentration); higher = less cytotoxic. To be noted: SB.msgc-1 (sporadic gastric cancer). Summed up: as §1
The subject of test [4] is SB.mhdgc-1. Described as above. As to conditions: SB.mhdgc-1 (hereditary c.1380delA CDH1 gastric cancer). A digest of the protocol: as §1

As usually defined, the viability is a read-out of living cells in per cent, often relative to untreated cells. On to `Cc1ccc(C(=O)Nc2cccc(C(F)(F)F)c2)cc1-c1ccc2nc(NCCN3CCOCC3)ncc2c1` [AMG-47a] (top concentration 46.0829 µM), for which the viability in test [1] was determined as 40%; in test [2], 24.1%. The “area under the dose-response curve” value was 512 in test [3] and 508 in test [4].
The like results for `COC1=C(OCCCN2CCOCC2)C=C3N=CC=C(OC4=CC=C(C=C4F)\C5=C\N=C(\NC6=CC=C(F)C=C6)N(C)C5=O)C3=C1` [AMG-51] (top concentration 46.0829 µM) were, in that order, 1.73%, 1.34%, 469 and 457.
In the case of `COc1ccc2c(OCc3nnc4ccc(-c5ccccc5)nn34)ccnc2c1` [AMG-208] (top concentration 46.0829 µM), the viability in test [1] is 97.7%; in test [2] it was 100%. For the same molecule, the “area under the dose-response curve” value is 527 in test [3] and 558 in test [4].
In the case of `COC1=CC2=NC=CC(=C2C=C1)OC3=CN=C(NC(=O)C/4=C(C)/N(CC(C)(C)O)N(C4=O)C5=CC=CC=C5)C=C3` [AMG-458] (top concentration 46.0829 µM), the viability was determined as 51.3% in test [1] and 77.2% in test [2]. The entries for the “area under the dose-response curve” value in test [3] and in test [4] were 427 and 455, respectively.
The like results for `Cc1csc(-c2nnc(Nc3ccc(Oc4ncccc4-c4ccnc(N)n4)cc3)c3ccccc23)c1` [AMG-900] (top concentration 46.0829 µM) were, in that order, 67.6%, 50.3%, 561 and 474.
The like results for `CNc1nccc(-c2cccnc2Oc2cc(C(=O)Nc3cccc(C(F)(F)F)c3)ccc2C)n1` [AMG-Tie2-1] (top concentration 46.0829 µM) were, in that order, 37.3%, 28.4%, 494 and 505.
The matching figures for `N#Cc1ccc(Oc2ccc3c(c2)COB3O)cc1` [AN2728] (top concentration 46.0829 µM): 74.8%, 59.1%, 581 and 518.
In the case of `CN(C)c1nc(Cc2ccc(NC(=O)c3ccc(C(F)(F)F)cc3)cc2)nc(N(C)C)c1CC(=O)O` [AP-761] (top concentration 46.0829 µM), the viability in test [1] and in test [2] was 113% in each case. Further, the entries for the “area under the dose-response curve” value in test [3] and in test [4] were 542 and 490, respectively.
Regarding `CN(C)c1nc(Cc2ccc(NC(=O)c3ccc4ccccc4c3)cc2)nc(Cl)c1CC(=O)O` [AP-768] (top concentration 46.0829 µM), the viability is 112% in test [1] and 95.4% in test [2]. Besides, the “area under the dose-response curve” value came out at 556 in test [3] and 509 in test [4].
The like results for `COCC1(CO)C(=O)C2CCN1CC2` (stereo not drawn) [APR-246] (top concentration 46.0829 µM) were, in that order, 85.1%, 2.52%, 548 and 407.
The matching figures for `CC1=CC=C(C=C1)\C2=N\C3=CC=C(Cl)C=C3OC2` [AR7] (top concentration 46.0829 µM): 35.4%, 39.3%, 446 and 506.
The like results for `CC(C)[C@H](C(=O)Nc1ccc(C(=O)NO)cc1)c1ccccc1` [AR-42] (top concentration 46.0829 µM) were, in that order, 5.4%, 33%, 317 and 391.
As for `CNC(=O)c1ccc(N2C(=S)N(c3cnc(C#N)c(C(F)(F)F)c3)C(=O)C23CCC3)cc1F` [ARN-509] (top concentration 46.0829 µM), the viability in test [1] was found to be 0.835%; in test [2] it was 2.3%. The “area under the dose-response curve” value stood at 317 in test [3] and 297 in test [4].
Regarding `Cn1cnc2c(F)c(Nc3ccc(Br)cc3F)c(C(=O)NOCCO)cc21` [ARRY-162] (top concentration 46.0829 µM), the viability in test [1] worked out at 80.5%; in test [2], 67.2%. For the same molecule, the results for the “area under the dose-response curve” value in test [3] and in test [4] were 500 and 403, respectively.
Take `CON(C)C(=O)N1\N=C(/S[C@]1(CCCN)C2=CC=CC=C2)C3=CC(=CC=C3F)F` [ARRY-520] (top concentration 46.0829 µM): the viability in test [1] stood at 50%; in test [2], 3.77%. Also, the results for the “area under the dose-response curve” value in test [3] and in test [4] were 223 and 287, respectively.
The like results for `COc1cc(N2CCC(N3CCN(C)CC3)CC2)ccc1Nc1ncnc(Nc2ccccc2[S+](=O)([O-])C(C)C)n1` [ASP-3026] (top concentration 46.0829 µM) were, in that order, 35.5%, 1.57%, 463 and 353.
Consider `C[C@H]1[C@@H](CC(C[C@H]2O[C@@H]3O[C@]4(C)CC[C@H]5[C@H](C)CC[C@@H]([C@H]2C)[C@@]35OO4)C[S+](=O)([O-])c2ccc(COC(=O)N(C)C)cc2)O[C@@H]2O[C@]3(C)CC[C@H]4[C@H](C)CC[C@@H]1[C@@]24OO3` [ASR-isobudimer-SO2Ph-4-CH2OC(O)NMe2] (top concentration 46.0829 µM), for which the viability was 70.4% in test [1] and 32.1% in test [2]. Also, the “area under the dose-response curve” value was determined as 487 in test [3] and 377 in test [4].
Turning to `C=CC(=O)Nc1ccc2ncnc(Nc3ccc(OCc4cccc(F)c4)c(Cl)c3)c2c1` [AST-1306] (top concentration 46.0829 µM), the results for the viability in test [1] and in test [2] were 10.9% and 1.47%, respectively. Further, the “area under the dose-response curve” value was 183 in test [3] and 314 in test [4].
The matching figures for `CN[C@@H](C)C(=O)N[C@H]1CN(C(=O)CC(C)C)CC[C@H]2CC[C@@H](C(=O)NC(c3ccccc3)c3ccccc3)N2C1=O` [AT-406] (top concentration 46.0829 µM): 18.7%, 14.5%, 452 and 385.
The matching figures for `O=C(NC1CCNCC1)c1n[nH]cc1NC(=O)c1c(Cl)cccc1Cl` [AT-7519] (top concentration 46.0829 µM): 40.8%, 67.2%, 403 and 411.
Take `Clc1ccc(C2(c3ccc(-c4cn[nH]c4)cc3)CCNCC2)cc1` [AT-7867] (top concentration 46.0829 µM): the viability amounted to 38% in test [1] and 3.91% in test [2]. Further, the “area under the dose-response curve” value in test [3] turned out to be 457; in test [4], 425.
The like results for `O=C(Nc1c[nH]nc1-c1nc2cc(CN3CCOCC3)ccc2[nH]1)NC1CC1` [AT-9283] (top concentration 46.0829 µM) were, in that order, 42.1%, 51%, 455 and 388.

For the origin of these results see the supplement of paper PMC5412046.
